From US10759796B2, “CXCR4 inhibitors and uses thereof” (X4 Pharmaceuticals, Inc., priority 2016, dated 2020)

Assays:
[1] = target: Jurkat cells expressing CXCR4 (Homo sapiens (Human), UniProt P61073); assay: Chemokine (CXCL12-AF647) binding inhibition assay; settings: CXCL12-AF647 25 ng/mL, read-out: IC50 CXCL-12 binding Jurkat
Experimental: Chemokine (CXCL12-AF647) Binding Inhibition Assay
Jurkat cells expressing CXCR4 were washed once with assay buffer (Hanks' balanced salt solution with 20 mM HEPES buffer and 0.2% bovine serum albumin, pH 7.4) and then incubated for 15 min at room temperature with the test compounds diluted in assay buffer at dose-dependent concentrations. Subsequently, CXCL12-AF647 (25 ng/mL) was added to the compound-incubated cells. The cells were incubated for 30 min at room temperature. Thereafter, the cells were washed twice in assay buffer, fixed in 1% paraformaldehyde in PBS, and analyzed on the FL4 channel of a FACSCalibur flow cytometer equipped with a 635-nm red diode laser (Becton Dickinson, San Jose, Calif., USA).
The percentages of inhibition of CXCL12-AF647 binding were calculated according to the formula: [1−((MFI−MFINC)/(MFIPC−MFINC))]×100 where MFI is the mean fluorescence intensity of the cells incubated with CXCL12-AF647 in the presence of the inhibitor, MFINC is the mean fluorescence intensity measured in the negative control (i.e., autofluorescence of unlabeled cells), and MFIPC is the mean fluorescence intensity of the positive control (i.e., cells exposed to CXCL12-AF647 alone).

[2] = target: CXCR-4 transfected U87 cell line (U87.CXCR4) (Homo sapiens (Human), UniProt P61073); assay: Intracellular CXCL-12-induced calcium mobilization assay (FLIPR); type: cell-based; settings: U87.CXCR4 cells, CXCL-12 25-50 ng/mL; read-out: IC50 CXCL-12 Ca2+ flux U87.CXCR4+
CXCR-4 transfected U87 cell line (U87.CXCR4), sequence (P61073 whole entry): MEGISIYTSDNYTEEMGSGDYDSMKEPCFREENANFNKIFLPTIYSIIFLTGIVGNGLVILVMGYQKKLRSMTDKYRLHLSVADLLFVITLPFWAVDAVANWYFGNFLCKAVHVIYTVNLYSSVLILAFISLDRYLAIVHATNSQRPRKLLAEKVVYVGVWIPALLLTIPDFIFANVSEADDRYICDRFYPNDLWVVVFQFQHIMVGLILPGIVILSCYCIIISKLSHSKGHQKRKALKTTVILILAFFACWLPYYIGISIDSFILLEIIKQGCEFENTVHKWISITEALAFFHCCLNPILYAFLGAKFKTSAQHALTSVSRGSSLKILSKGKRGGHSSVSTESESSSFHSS
Experimental: Example 28: REGA Screening Assay
Intracellular CXCL-12-Induced Calcium Mobilization Assay
Intracellular calcium mobilization induced by chemokines or chemokine-derived peptides were evaluated using a calcium responsive fluorescent probe and a FLIPR system. The CXCR-4 transfected U87 cell line (U87.CXCR4) cells were seeded in gelatine-coated black-wall 96-well plates at 20,000 cells per well and incubated for 12 hours. Cells were then loaded with the fluorescent calcium probe Fluo-2 acetoxymethyl at 4 μM final concentration in assay buffer (Hanks' balanced salt solution with 20 mM HEPES buffer and 0.2% bovine serum albumin, pH 7.4) for 45 min at 37° C. The intracellular calcium mobilization induced by the CXCL-12 (25-50 ng/mL) was then measured at 37° C. by monitoring the fluorescence as a function of time in all the wells simultaneously using a fluorometric imaging plate reader (FLIPR Tetra, Molecular Devices).

in vitro = settings: human, Caco-2, pH 7.4
Experimental: Example 28: Caco-2 Permeability Assay
The goal of this assay was to evaluate the intestinal absorption potential of drug candidates using Caco-2 cell lines.
1. Prewarm Prewarm HBSS Buffer in 37° C. water bath
2. Sonicate Take compounds from −20° C., sonicate for a few minutes (no less than 1 minute)
HBSS buffer with 0.3% DMSO and 5 μM LY: add 150 μL DMSO and 50 μL LY (5 mM) into 50 ml HBSS buffer (pH 7.4).
HBSS buffer with 0.1% DMSO and 5 μM LY: add 50 μL DMSO and 50 μL LY (5 mM) into 50 mL HBSS buffer (pH 7.4).
HBSS buffer with 0.3% DMSO: add 150 μL DMSO into 50 ml HBSS buffer (pH 7.4).
HBSS buffer with 0.1% DMSO: add 50 μL DMSO into 50 ml HBSS buffer (pH 7.4).
Receiver Solution Buffer:
Prepare HBSS buffer with 0.4% DMSO: add 200 μL DMSO into 50 ml HBSS buffer (pH 7.4).
Prepare HBSS buffer with 0.4% DMSO and 5 μM LY: add 200 μL DMSO and 50 μL LY (5 mM) into 50 ml HBSS buffer (pH 7.4).
4. Measure TEER Take cell culture plate out of incubator, wash the cell monolayers with HBSS buffer, and then measure TEER values at Rm temperature. 5. Centrifuge Centrifuge the compound solution (from step 3) at 4000 rpm for 5 min before loading to donor chambers. 6. Dosing Add solution based on the volumes listed in the following table (make sure to take extra 100 μL of donor sample for TO as Backup).
7. Apical LYT0 Samples To determine LY concentration in the apical chember, take 100 μL sample from apical chambers into an opaque plate for LYT0. 8. Prewarm Prewarm apical and basolateral plates at 37° C. for about 5 min, then begin transport by placing the apical plate onto basolateral plate. 9. Incubation Keep the plates in incubator at 37° C. for 90 min. 10. Standard Curve Preparation
For 300 μM compound solution, add 6 μL of compound stock solution into 192 μL of MeOH/H2O (1:1).
Prepare Working Solution in MeOH/H2O (1:1)
3 μL (20×)+57 μL of 0.4% DMSO HBSS+60 μL ACN with IS (Osalmid or Imipramine) - - - 120 μL (1×)
11. Transport Termination Separate the apical plate from the basolateral plate after 90-min incubation.
12. Measure LY Take 100 μL samples from basolateral plate to an opaque plate as LYT90.
13. Measure LY concentrations for LYT0 and LYT90 by Fluorometer (at excitation of 485 nm/emission of 535 nm).
Study details: Test concentration 10 μM
Test systems: Caco-2/HBSS solution
Incubation conditions: 0, 90 min at 37° C.
Sample size: Duplicates (n=2)
Bioanalytical method: LC-MS/MS
For Millicell-24 Cell Culture Plates: surface area of the membrane=0.7 cm^2, VA=0.8 mL (A-to-B) or 0.4 mL (B-to-A)
1. Papp values were calculated based on calculated concentrations.
The compound numbers correspond to the compound numbers in Table 1.

Jurkat cells expressing CXCR4, sequence (P61073 whole entry): as above

| SMILES | IC50 [1] | IC50 [2] | Papp at 90 min, 10 μM (in vitro) | efflux ratio at 90 min, 10 μM (in vitro) |
| --- | --- | --- | --- | --- |
| Cc1cccnc1[C@@H]1CCC[C@H](c2cn3ccccc3n2)N1CCCCN [Compound I-2] | 100 to 1000 nM | 100 to 1000 nM | – | – |
| Cc1cccnc1[C@@H]1CCC[C@H](c2cn3c(-c4cncn4C)cccc3n2)N1 [Compound I-213] | ≥ 1000 nM | ≥ 1000 nM | – | – |
| Cc1cccnc1[C@@H]1CCC[C@H](c2cn3c(-c4ccnn4C)cccc3n2)N1 [Compound I-212] | ≥ 1000 nM | ≥ 1000 nM | – | – |
| CN1CCN(c2cccc3nc([C@H]4CCC[C@@H](c5ncccc5C(F)(F)F)N4C)c(Cl)n23)CC1 [Compound I-119] | 0.01 to 100 nM | ≥ 1000 nM | – | – |
| CCOCc1c([C@H]2CCC[C@@H](c3ncccc3C(C)C)N2C)nc2cccc(N3CCN(CC)CC3)n12 [Compound I-59] | 100 to 1000 nM | ≥ 1000 nM | – | – |
| Cc1cccnc1[C@@H]1CCC[C@H](c2cn3c(-c4ccncc4)cccc3n2)N1C [Compound I-5] | 0.01 to 100 nM | 100 to 1000 nM | – | – |
| Cc1cccnc1[C@@H]1CCC[C@H](c2cn3c(-c4ccncc4)cccc3n2)N1 [Compound I-214] | ≥ 1000 nM | ≥ 1000 nM | – | – |
| Cc1cccnc1[C@@H]1CCC[C@H](c2nc3ccccn3c2CCC#N)N1 [Compound I-219] | ≥ 1000 nM | ≥ 1000 nM | – | – |
| COCCc1ccc(OCC(O)CNC(C)C)cc1 (stereo not drawn) [Metoprolol, reference compound] | – | – | > 10 ×10⁻⁶ cm/s | – |
| Cc1cccnc1[C@@H]1CCC[C@H](c2cn3c(N4CCN(C)CC4=O)cccc3n2)N1 [Compound I-211] | 100 to 1000 nM | ≥ 1000 nM | – | – |
| CC[C@H]1OC(=O)[C@H](C)[C@@H](O[C@H]2C[C@@](C)(OC)[C@@H](O)[C@H](C)O2)[C@H](C)[C@@H](O[C@@H]2O[C@H](C)C[C@H](N(C)C)[C@H]2O)[C@](C)(O)C[C@@H](C)C(=O)[C@H](C)[C@@H](O)[C@]1(C)O [Erythromycin, reference compound] | – | – | – | > 116 |
| Cc1cccnc1[C@@H]1CCC[C@H](c2cn3c(-c4ccccn4)cccc3n2)N1 [Compound I-216] | ≥ 1000 nM | ≥ 1000 nM | – | – |
| CC(C)c1cccnc1[C@@H]1CCC[C@H](c2nc3cccc(N4CCN(C)CC4)n3c2CO)N1C [Compound I-74] | 100 to 1000 nM | ≥ 1000 nM | – | – |
| Cc1cccnc1[C@@H]1CCC[C@H](c2cn3c(-c4cccnc4)cccc3n2)N1 [Compound I-215] | ≥ 1000 nM | ≥ 1000 nM | – | – |
| Cc1cccnc1[C@@H]1CCC[C@H](c2cn3ccccc3n2)N1CCn1cccn1 [Compound I-10] | 0.01 to 100 nM | 0.01 to 100 nM | – | – |
| Cc1cccnc1[C@H]1CCC[C@@H](c2nc3ccccn3c2CCCN)N1C (stereo in doubt) [Compound I-26] | 0.01 to 100 nM | 100 to 1000 nM | – | – |
